{"source": "paper PMC10799292", "about": "“The Role of β-Defensin 1 Against Porphyromonas gingivalis Lipopolysaccharide-Mediated Inflammation in the THP-1 Cell Line” (Cureus, 2023)", "system": "LOX", "experiment": "Lipoxygenase (LOX) activity inhibition in lysate of Pg-LPS stimulated THP-1 cells", "type": "cell-based, human", "details": "for LOX Percentage inhibition Average / LOX Percentage inhibition 1 / LOX Percentage inhibition 2: Pg-LPS 1 µg/mL, 24 h; for LOX Percentage inhibition Average: mean of duplicates; for LOX Percentage inhibition 1: replicate 1; for LOX Percentage inhibition 2: replicate 2", "description": "For inducing differentiation of THP-1 cells into macrophages, the cell line was premixed with 25 ng/mL PMA and incubated for 48 hours. After incubation, 5x10^4 cells were activated with Pg-LPS (LPS: 1 µg/mL) for one hour. Pg-LPS stimulated cells were exposed to different concentrations (6.25, 12.5, and 25 ng/mL) of β-defensin 1 and incubated for 24 hours. After incubation, the following anti-inflammatory assays were conducted utilizing the cell lysate.\nThe lipoxygenase (LOX) activity was determined using the method described by Axelrod in 1981 [12]. The reaction mixture consisted of 50 µL of cell lysate, Tris-HCl buffer (pH 7.4), and 200 µL of sodium linoleate. By determining absorbance at 234 nm (Agilent Cary 60), the formation of […], an indicator of LOX activity, was tracked. The percentage inhibition of the enzyme was computed as […]", "note": "No end group written: not given here.", "data": [{"substance": "β-defensin 1: β-Defensin 1 peptide was purchased from ThermoFisher Scientific, USA; cationic antimicrobial peptide (DHYNCVSSGGQCLYSACPIFTKIQGTCYRGKAKCCK; ends and bridges not checked; cysteine pairing not given here; UniProt P60022 33-68, looked up)", "values": [{"measurement": "LOX Percentage inhibition Average", "setting": "6.25 ng/mL", "value": 21.485, "unit": "%"}, {"measurement": "LOX Percentage inhibition 1", "setting": "6.25 ng/mL", "value": 21.23, "unit": "%"}, {"measurement": "LOX Percentage inhibition 2", "setting": "6.25 ng/mL", "value": 21.74, "unit": "%"}, {"measurement": "LOX Percentage inhibition Average", "setting": "12.5 ng/mL", "value": 38.08, "unit": "%"}, {"measurement": "LOX Percentage inhibition 1", "setting": "12.5 ng/mL", "value": 38.85, "unit": "%"}, {"measurement": "LOX Percentage inhibition 2", "setting": "12.5 ng/mL", "value": 37.31, "unit": "%"}, {"measurement": "LOX Percentage inhibition Average", "setting": "25 ng/mL", "value": 54.675, "unit": "%"}, {"measurement": "LOX Percentage inhibition 1", "setting": "25 ng/mL", "value": 55.2, "unit": "%"}, {"measurement": "LOX Percentage inhibition 2", "setting": "25 ng/mL", "value": 54.15, "unit": "%"}, {"measurement": "LOX percentage inhibition (in words)", "setting": "6.25, 12.5, and 25 ng/mL, Pg-LPS stimulated", "value": "increased in a concentration-dependent manner"}]}]}
